# Experimental data taken from ChEMBL document CHEMBL1201862, “PubChem BioAssay data set” (2004).
# The source made the active and inactive calls.
# Assays:
# Melanocortin receptor 4 = Melanocortin receptor 4 (Homo sapiens, UniProt P32245); experiment: MC4R antagonist potency on cAMP, dose response, cell-based, TR-FRET, biased antagonists (AID 602298); type: functional;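 further: antagonist potency against agonist-stimulated cAMP production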
# Protein RecA = target: T1, Protein RecA (Mycobacterium tuberculosis, UniProt P9WHJ3); experiment: Fluorescence Cell-Free Homogeneous Dose Retest to Identify Inhibitors of RecA-Intein Splicing Activity. [Related pubchem assays (depositor defined):AID2097, AID2223, AID489010, AID492950]; type: functional
# T1 sequence (P9WHJ3 whole entry): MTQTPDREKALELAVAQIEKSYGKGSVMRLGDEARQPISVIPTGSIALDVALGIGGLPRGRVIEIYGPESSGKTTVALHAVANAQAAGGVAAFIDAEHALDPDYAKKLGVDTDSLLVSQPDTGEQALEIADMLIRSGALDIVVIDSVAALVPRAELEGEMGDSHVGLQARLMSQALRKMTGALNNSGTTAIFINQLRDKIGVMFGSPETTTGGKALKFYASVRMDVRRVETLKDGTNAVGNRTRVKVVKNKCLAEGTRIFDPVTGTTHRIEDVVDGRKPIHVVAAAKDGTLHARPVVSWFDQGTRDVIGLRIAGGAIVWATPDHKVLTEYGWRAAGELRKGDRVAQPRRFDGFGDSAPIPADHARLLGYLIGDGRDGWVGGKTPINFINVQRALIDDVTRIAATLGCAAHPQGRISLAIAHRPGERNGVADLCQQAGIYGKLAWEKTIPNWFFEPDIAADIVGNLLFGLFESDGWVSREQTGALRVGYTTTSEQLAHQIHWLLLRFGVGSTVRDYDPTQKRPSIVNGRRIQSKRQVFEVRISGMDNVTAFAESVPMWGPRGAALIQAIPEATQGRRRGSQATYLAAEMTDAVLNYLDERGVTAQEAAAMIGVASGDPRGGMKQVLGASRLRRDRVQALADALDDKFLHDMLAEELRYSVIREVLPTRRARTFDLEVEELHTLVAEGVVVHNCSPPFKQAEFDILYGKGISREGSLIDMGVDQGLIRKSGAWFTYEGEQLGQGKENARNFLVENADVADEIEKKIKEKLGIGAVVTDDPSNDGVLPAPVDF
# INS1 = experiment: beta cell apoptosis inhibitors, cytokine rescue, dose response, luminescence, retest (AID 449756); type: functional, cell-based; conditions: Rattus norvegicus;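 further: cell death triggered by IL-1 beta plus TNF-alpha plus IFN-gamma mixture; protective hits raise ATP signal compared with cytokine alone wells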
# Streptokinase A = target: T2, Streptokinase A (Streptococcus pyogenes serotype M1, UniProt P10520); experiment: S. pyogenes streptokinase expression inhibitors, potency, dose response, plasminogen activation absorbance, OD405 (AID 1914); type: functional, Streptococcus pyogenes M1 GAS;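 further: secreted streptokinase activity via plasminogen activation per viability signal from cell pellet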
# T2 sequence (P10520 whole entry): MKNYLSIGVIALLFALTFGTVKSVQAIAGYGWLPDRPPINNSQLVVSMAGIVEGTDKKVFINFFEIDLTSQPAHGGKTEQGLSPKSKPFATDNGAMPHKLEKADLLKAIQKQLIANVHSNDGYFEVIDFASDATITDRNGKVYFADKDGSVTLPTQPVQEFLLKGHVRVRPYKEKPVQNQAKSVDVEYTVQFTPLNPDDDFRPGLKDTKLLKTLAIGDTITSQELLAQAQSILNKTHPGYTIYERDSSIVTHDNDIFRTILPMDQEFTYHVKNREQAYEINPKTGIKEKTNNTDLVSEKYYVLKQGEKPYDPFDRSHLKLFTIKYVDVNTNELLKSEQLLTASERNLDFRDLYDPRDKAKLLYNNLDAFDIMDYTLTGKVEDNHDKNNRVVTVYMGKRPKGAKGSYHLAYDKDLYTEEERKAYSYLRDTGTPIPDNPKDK
# Streptococcus = experiment: Group A Streptococcus viability loss, dose response, counter-screen for streptokinase expression inhibitor project, luminescence, BacTiterGlo (AID 1915); type: functional, organism-based;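 further: potency for reduction of bacterial viability or growth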
# [1] = target: T3, Sentrin-specific protease 7 (Homo sapiens, UniProt Q9BQF6); type: functional;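 further: Luminescence-based dose-response confirmation of ultra-high-throughput screening hits, measuring inhibition of SENP7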
# T3 sequence (Q9BQF6 whole entry): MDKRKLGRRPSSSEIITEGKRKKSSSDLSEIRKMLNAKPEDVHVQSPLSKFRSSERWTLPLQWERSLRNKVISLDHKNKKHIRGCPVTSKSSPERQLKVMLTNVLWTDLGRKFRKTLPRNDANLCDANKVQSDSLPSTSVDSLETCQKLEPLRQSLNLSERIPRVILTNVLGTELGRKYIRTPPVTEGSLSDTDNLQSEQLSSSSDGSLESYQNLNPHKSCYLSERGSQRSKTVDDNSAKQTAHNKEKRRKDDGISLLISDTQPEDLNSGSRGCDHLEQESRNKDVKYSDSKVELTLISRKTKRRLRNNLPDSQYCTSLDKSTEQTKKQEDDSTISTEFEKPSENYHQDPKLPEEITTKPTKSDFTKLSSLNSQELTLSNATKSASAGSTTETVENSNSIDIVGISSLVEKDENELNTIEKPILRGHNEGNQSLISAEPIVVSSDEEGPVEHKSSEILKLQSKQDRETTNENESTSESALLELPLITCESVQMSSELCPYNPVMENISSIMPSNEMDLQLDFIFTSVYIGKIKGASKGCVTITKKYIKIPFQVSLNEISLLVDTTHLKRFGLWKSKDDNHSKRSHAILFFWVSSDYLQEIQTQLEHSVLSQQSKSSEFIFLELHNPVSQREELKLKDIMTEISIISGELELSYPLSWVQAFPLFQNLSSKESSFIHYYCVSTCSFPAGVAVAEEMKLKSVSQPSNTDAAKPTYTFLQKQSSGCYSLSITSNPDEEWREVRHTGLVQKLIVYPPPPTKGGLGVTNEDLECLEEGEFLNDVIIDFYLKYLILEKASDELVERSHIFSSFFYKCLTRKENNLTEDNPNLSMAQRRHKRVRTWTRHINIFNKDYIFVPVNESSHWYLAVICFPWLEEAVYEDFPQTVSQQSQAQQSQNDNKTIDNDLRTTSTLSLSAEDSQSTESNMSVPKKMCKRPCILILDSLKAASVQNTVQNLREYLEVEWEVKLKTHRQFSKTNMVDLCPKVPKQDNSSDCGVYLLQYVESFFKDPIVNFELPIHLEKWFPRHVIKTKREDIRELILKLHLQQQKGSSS
# [2] = target: T4, RNA-binding protein pos-1 (Caenorhabditis elegans, UniProt G5EF15); experiment: inhibitors of POS-1/mex-3 RNA binding, dose response, biochemical, fluorescence polarization (AID 1964);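 further: purified POS-1 fused to maltose binding protein made in E. coli; potency of compounds blocking POS-1 binding to fluorescent RNA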
# T4 sequence (G5EF15 whole entry): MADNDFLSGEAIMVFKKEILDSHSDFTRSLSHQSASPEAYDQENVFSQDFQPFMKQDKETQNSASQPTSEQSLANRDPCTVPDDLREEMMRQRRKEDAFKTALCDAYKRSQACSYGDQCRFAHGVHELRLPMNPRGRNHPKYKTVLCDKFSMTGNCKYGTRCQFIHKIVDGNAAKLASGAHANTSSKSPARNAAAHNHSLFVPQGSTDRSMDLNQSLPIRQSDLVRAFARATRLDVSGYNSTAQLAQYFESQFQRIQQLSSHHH
# [3] = microbe, parasite or virus in culture; type: functional; conditions: Mycobacterium tuberculosis
# [4] = HepG2 cell cytotoxicity, dose response, cytotoxicity control, ATP luminescence, cherry-pick, activator set 2 (AID 1053143); type: functional, cell-based
# Melanocortin receptor 4, sequence (P32245 whole entry): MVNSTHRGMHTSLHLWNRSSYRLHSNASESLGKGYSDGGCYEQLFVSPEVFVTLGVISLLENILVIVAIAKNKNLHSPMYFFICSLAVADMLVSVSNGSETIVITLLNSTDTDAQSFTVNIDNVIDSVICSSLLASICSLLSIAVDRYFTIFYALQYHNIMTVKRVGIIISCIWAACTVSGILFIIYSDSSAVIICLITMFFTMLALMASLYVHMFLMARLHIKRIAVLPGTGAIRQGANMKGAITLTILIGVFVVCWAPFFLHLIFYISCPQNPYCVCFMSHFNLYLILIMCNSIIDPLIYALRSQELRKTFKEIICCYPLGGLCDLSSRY
SMILES,IC50 (Melanocortin receptor 4),EC50 (Protein RecA),AC50 (INS1),EC50 (Streptokinase A),EC50 (Streptococcus),IC50 [1],EC50 [2],CC50 [3],AC50 [4]
CCC1CCCCN1S(=O)(=O)c1ccc(NC(=O)c2nc(S(C)(=O)=O)ncc2Cl)cc1 (stereo not drawn),1.17 µM (active),1.11 µM (active),5.24 µM (active),0.66 µM (active),13.2 µM (active),–,–,–,–
CCCC[n+]1ccn(C2=C([N-]S(=O)(=O)c3ccc(Cl)cc3)C(=O)c3ccccc3C2=O)c1,–,–,–,–,–,22 µM (active),> 300 µM (inconclusive),–,–
CC(=O)c1cccc2c1N=C(c1[nH]c3ccccc3c1O)C2=O,–,2.76 µM (active),–,116 µM (active),> 150 µM (not active),15.7 µM (active),–,> 40 µM (active),22.4 µM (active)
